Assay results from patent US20170362243A1, “BIARYLETHER IMIDAZOPYRAZINE BTK INHIBITORS” (MERCK SHARP & DOHME CORP., priority 2014, published 2017).

Molecular target: T1, BTK enzyme (recombinant full-length BTK, hBTK) (Homo sapiens, UniProt Q06187)
T1 construct: recombinant protein from baculovirus-transfected Sf9 cells: full-length BTK, 6HIS-tag cleaved; 6HIS (cleaved yes); made in house; host or cells: baculovirus-transfected Sf9 cells
Assay: Btk enzyme activity assay, LANCE TR-FRET
Assay type: biochemical
Settings: 50 pM hBTK, 2 μM biotin-A5-peptide, 25 μM ATP, 60 minute compound & enzyme incubation, read-out: BTK binding IC50
Procedure: BTK enzymatic activity was determined with the LANCE (Lanthanide Chelate Excite) TR-FRET (Time-resolved fluorescence resonance energy transfer) assay. In this assay, the potency (IC50) of each compound was determined from an eleven point (1:3 serial dilution; final compound concentration range in assay from 1 μM to 0.017 nM) titration curve using the following outlined procedure. To each well of a black non-binding surface Corning 384-well microplate (Corning Catalog #3820), 5 nL of compound (2000 fold dilution in final assay volume of 10 μL) was dispensed, followed by the addition of 7.5 μL of 1× kinase buffer (50 mM Hepes 7.5, 10 mM MgCl2, 0.01% Brij-35, 1 mM EGTA, 0.05% BSA & 1 mM DTT) containing 5.09 pg/μL (66.67 pM) of BTK enzyme (recombinant protein from baculovirus-transfected Sf9 cells: full-length BTK, 6HIS-tag cleaved). Following a 60 minute compound & enzyme incubation, each reaction was initiated by the addition of 2.5 μL 1× kinase buffer containing 8 μM biotinylated “A5” peptide (Biotin-EQEDEPEGDYFEWLE-NH2) (SEQ.ID.NO.: 1), and 100 μM ATP. The final reaction in each well of 10 μL consists of 50 pM hBTK, 2 μM biotin-A5-peptide, and 25 μM ATP. Phosphorylation reactions were allowed to proceed for 120 minutes. Reactions were immediately quenched by the addition of 20 uL of 1× quench buffer (15 mM EDTA, 25 mM Hepes 7.3, and 0.1% Triton X-100) containing detection reagents (0.626 nM of LANCE-Eu-W1024-anti-phosphoTyrosine antibody, PerkinElmer and 86.8 nM of Streptavidin-conjugated Dylight 650, Dyomics/ThermoFisher Scientific). After 60 minutes incubation with detection reagents, reaction plates were read on a PerkinElmer EnVision plate reader using standard TR-FRET protocol. Briefly, excitation of donor molecules (Eu-chelate:anti-phospho-antibody) with a laser light source at 337 nm produces energy that can be transferred to Dylight-650 acceptor molecules if this donor:acceptor pair is within close proximity. Fluorescence intensity at both 665 nm (acceptor) and 615 nm (donor) are measured and a TR-FRET ratio calculated for each well (acceptor intensity/donor intensity). IC50 values were determined by 4 parameter robust fit of TR-FRET ratio values vs. (Log10) compound concentrations.
The following Table 3 provides specific IC50 values for all the examples. The IC50 values set forth below were determined according to Assay method described above.

T1 sequence (Q06187 whole entry): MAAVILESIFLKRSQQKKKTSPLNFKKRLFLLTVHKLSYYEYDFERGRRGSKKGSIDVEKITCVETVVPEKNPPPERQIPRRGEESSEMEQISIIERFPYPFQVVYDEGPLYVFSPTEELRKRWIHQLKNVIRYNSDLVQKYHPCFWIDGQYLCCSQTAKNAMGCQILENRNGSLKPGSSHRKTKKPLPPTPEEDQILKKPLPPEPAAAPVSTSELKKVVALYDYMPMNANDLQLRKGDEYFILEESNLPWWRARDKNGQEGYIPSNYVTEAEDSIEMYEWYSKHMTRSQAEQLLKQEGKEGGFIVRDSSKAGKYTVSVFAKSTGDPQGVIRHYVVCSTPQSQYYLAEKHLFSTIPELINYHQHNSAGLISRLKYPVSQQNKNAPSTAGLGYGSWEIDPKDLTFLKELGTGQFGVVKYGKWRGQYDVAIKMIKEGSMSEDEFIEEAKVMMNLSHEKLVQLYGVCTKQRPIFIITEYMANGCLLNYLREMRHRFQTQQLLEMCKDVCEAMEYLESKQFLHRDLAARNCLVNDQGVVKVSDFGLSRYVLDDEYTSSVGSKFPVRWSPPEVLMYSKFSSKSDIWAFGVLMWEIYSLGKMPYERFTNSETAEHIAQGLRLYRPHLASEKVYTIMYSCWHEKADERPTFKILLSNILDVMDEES

| IC50 | SMILES |
| --- | --- |
| 4.4 nM | CC(C)[C@@]1(C(=O)O)CCC(c2nc(-c3ccc(Oc4cccc(F)c4)cc3)c3c(N)nccn23)C1 (stereo in doubt) [Example 4, (1R,3S)-3-{8-amino-1-[4-(3-fluorophenoxy)phenyl]imidazo[1,5-a]pyrazin-3-yl}-1-(1-methylethyl)cyclo-pentanecarboxylic acid] |
| 0.3 nM | Nc1nccn2c(C34C5C6C3C3C4C5C63C(=O)O)nc(-c3ccc(Oc4ccccc4)cc3)c12 (centres unmarked) [Example 23, 4-(8-amino-1-(4-phenoxyphenyl)imidazo[1,5-a]pyrazin-3-yl)cubane-1-carboxylic acid] |
| 19.5 nM | CC(C)[C@@]1(C(=O)O)CC[C@H](c2nc(-c3ccc(Oc4cccc(F)c4)cc3)c3c(N)nccn23)C1 [Example 3, (1R,3S)-3-{8-amino-1-[4-(3-fluorophenoxy)phenyl]imidazo[1,5-a]pyrazin-3-yl}-1-(1-methylethyl)cyclo-pentanecarboxylic acid] |
| 1.3 nM | CC1(C(=O)O)CCC(C)(c2nc(-c3ccc(Oc4ccccc4)cc3)c3c(N)nccn23)C1 (single isomer, unassigned) [Example 29, 3-[8-amino-1-(4-phenoxyphenyl)imidazo[1,5-a]pyrazin-3-yl]-1,3-dimethylcyclo-pentanecarboxylic acid (E2)] |
| 7.1 nM | Nc1nccn2c([C@@H]3CCC[C@H](C(=O)O)C3)nc(-c3ccc(Oc4ccccc4)cc3)c12 [Example 9, (1S,3R)-3-[8-amino-1-(4-phenoxyphenyl)imidazo[1,5-a]pyrazin-3-yl]cyclohexanecarboxylic acid] |
| 0.18 nM | Nc1nccn2c([C@@H]3CCC[C@@H](C(=O)O)C3)nc(-c3ccc(Oc4ccccc4)cc3)c12 (relative stereo) [Example 30, Trans-3-(8-amino-1-(4-phenoxyphenyl)imidazo[1,5-a]pyrazin-3-yl)cyclohexanecarboxylic acid] |
| 0.5 nM | Nc1nccn2c1c(-c1ccc(Oc3ccccc3)cc1)nc2[C@H]1CC[C@H](C(=O)O)CC1 [Example 17, trans-4-[8-amino-1-(4-phenoxyphenyl)imidazo [1,5-a]pyrazin-3-yl]cyclohexane-carboxylic acid] |
| 2 nM | CC(C)[C@]1(C(=O)O)CC[C@@H](c2nc(-c3ccc(Oc4cccc(F)c4)cc3)c3c(N)nccn23)C1 [Example 2, (1S,3R)-3-{8-amino-1-[4-(3-fluorophenoxy)phenyl]imidazo[1,5-a]pyrazin-3-yl}-1-(1-methylethyl)cyclo-pentanecarboxylic acid] |
| 2.1 nM | CC(C)(C(=O)O)C1CCC(c2nc(-c3ccc(Oc4ccccc4)cc3)c3c(N)nccn23)C1 (centres unmarked) [Example 7, 2-{3-[8-amino-1-(4-phenoxyphenyl)imidazo[1,5-a]pyrazin-3-yl]cyclopentyl}-2-methylpropanoic acid] |

Continued, compound first:

| SMILES | IC50 |
| --- | --- |
| CCC[C@]1(C(=O)O)CCC[C@@H](c2nc(-c3ccc(Oc4ccccc4)cc3)c3c(N)nccn23)C1 [Example 19, (1S,3R)-3-[8-amino-1-(4-pheenoxyphenyl)imidazo[1,5-a]pyrazin-3-yl]-1-propylcyclohexane-carboxylic acid] | 200 nM |
| Nc1nccn2c(C3CCC(C(=O)O)O3)nc(-c3ccc(Oc4ccccc4)cc3)c12 (single isomer, unassigned) [Example 27, 5-[8-amino-1-(4-phenoxyphenyl)imidazo[1,5-a]pyrazin-3-yl]tetrahydrofuran-2-carboxylic acid (E2)] | 12.5 nM |
| C[C@]1(C(=O)O)CCC[C@@H](c2nc(-c3ccc(Oc4cccc(F)c4)cc3)c3c(N)nccn23)C1 [Example 13, (1S,3R)-3-{8-amino-1-[4-(3-fluorophenoxy)phenyl]imidazo[1,5-a]pyrazin-3-yl}-1-methylcyclohexanecarboxylic acid] | 5.9 nM |
| CCC[C@@]1(C(=O)O)CCC[C@@H](c2nc(-c3ccc(Oc4ccccc4)cc3)c3c(N)nccn23)C1 [Example 20, (1R,3R)-3-[8-amino-1-(4-phenoxyphenyl)imidazo[1,5-a]pyrazin-3-yl]-1-propylcyclohexane-carboxylic acid] | 4.9 nM |
| Nc1nccn2c1c(-c1ccc(Oc3cccc(F)c3)cc1)nc2[C@H]1CC[C@@H](C(=O)O)CC1 [Example 11, cis-4-{8-amino-1-[4-(3-fluorophenoxy)phenyl]imidazo[1,5-a]pyrazin-3-yl}cyclohexanecarboxylic acid] | 14.3 nM |
| CC(C)C1(C(=O)O)CC[C@H](c2nc(-c3ccc(Oc4cccc(F)c4)cc3)c3c(N)nccn23)C1 (stereo in doubt) [Example 5, (1R,3S)-3-{8-amino-1-[4-(3-fluorophenoxy)phenyl]imidazo[1,5-a]pyrazin-3-yl}-1-(1-methylethyl)cyclo-pentanecarboxylic acid] | 1.4 nM |
| CC1(C)[C@@H](C(=O)O)C[C@H]1c1nc(-c2ccc(Oc3ccccc3)cc2)c2c(N)nccn12 [Example 18, (1 S,3R)-3-(8-amino-1-(4-phenoxyphenyl)imidazo[1,5-a]pyrazin-3-1)-2,2-dimethylcyclobutanecarboxylic acid] | 3.5 nM |
| Nc1nccn2c(C3CCC(C(=O)O)O3)nc(-c3ccc(Oc4ccccc4)cc3)c12 (single isomer, unassigned) [Example 26, 5-[8-amino-1-(4-phenoxyphenyl)imidazo[1,5-a]pyrazin-3-yl]tetrahydrofuran-2-carboxylic acid (E1)] | 12.5 nM |
